The text below walks through data of US12565468B2, “Processes and intermediates for the preparations of Carboprost and Carboprost Tromethamine, and Carboprost Tromethamine prepared therefrom” (CHIROGATE INTERNATIONAL INC., priority 2021, dated 2026).

Holding throughout (format): physicochemical
Series [1] in a line: Stability of Carboprost Tromethamine crystal at 80° C. (HPLC purity and impurities). An excerpt:
(§1) The high melting point Carboprost Tromethamine Crystal is very stable at room temperature, even at higher temperature, so that the formation of degradation impurities can be effectively avoided.

Series [2] can be described thus: Stability of Carboprost Tromethamine crystal on storage at 25° C./60% RH and 5° C. (HPLC purity and impurities).
Description: as §1

Series [3] is described as follows: Hygroscopicity: water content by Karl Fischer titration after exposure to 99% RH at 25° C. The method, then:
On the other hand, the hygroscopicity of the high melting point Carboprost Tromethamine crystal prepared from Example 10 (Method A) and the low melting point Carboprost Tromethamine crystal prepared from Example 10 (Method B) was measured. The samples were placed in glass vial with 99% RH at 25° C. for 3 hours, and the water content of the samples were measured by Karl Fischer titration, as shown in Table 6.

`CCCCC[C@](C)(O)/C=C/[C@@H]1[C@@H](C/C=C\CCCC(=O)O)[C@@H](O)C[C@H]1O` [Example 10 (Method A), 2-amino-2-(hydroxymethyl)propane-1,3-diol; (Z)-7-((1R,2R,3R,5S)-3,5-dihydroxy-2-((S,E)-3-hydroxy-3-methyloct-1-en-1-yl)cyclopentyl)hept-5-enoate]: the 15-epi in series [1] (80° C., 1 days) was 0.20%; in series [1] (80° C., 3 days) it was 0.21%; in series [1] (Control), 0.21%; in series [2] (5° C., 1 month), 0.28%; in series [2] (5° C., 12 months) it was 0.25%; in series [2] (5° C., 18 months), 0.25%. Moreover, the Purity in series [1] (80° C., 1 days) amounted to 99.79%; in series [1] (80° C., 3 days), 99.78%; in series [1] (Control), 99.79%; in series [2] (5° C., 1 month), 99.72%; in series [2] (5° C., 12 months) it was 99.75%; in series [2] (5° C., 18 months), 99.75%. Moreover, the Purity turned out to be 99.71% in series [2] (25° C./60% RH, 1 month); 99.75% in series [2] (25° C./60% RH, 6 months); 99.75% in series [2] (Control). The “Total Impurities” value in series [1] (80° C., 1 days) came to 0.21%; in series [1] (80° C., 3 days), 0.22%; in series [1] (Control) it was 0.21%; in series [2] (5° C., 1 month) it was 0.28%; in series [2] (5° C., 12 months) it was 0.25%; in series [2] (5° C., 18 months), 0.25%. The “Total Impurities” value in series [2] (25° C./60% RH, 1 month) is reported as 0.29%; in series [2] (25° C./60% RH, 6 months), 0.25%; in series [2] (Control), 0.25%. Moreover, the “15(R)-epimer” value worked out at 0.27% in series [2] (25° C./60% RH, 1 month); 0.25% in series [2] (25° C./60% RH, 6 months); 0.25% in series [2] (Control). Besides, the “Stability (in words)” value is given as “very stable” in series [2] (at room temperature, even at higher temperature); “very stable” in series [2] (treated at 20° C. for 6 months, 5° C. for 18 months, and 80° C. for 3 days); “stable” in series [2] (treated at 20° C. for 6 months, PC for 18 months, and 80° C. for 3 days). Also, the “Water Content (%)” value in series [3] (25° C./99% RH/1 h) is given as 1.509%; in series [3] (25° C./99% RH/2 h) it was 3.354%; in series [3] (25° C./99% RH/3 h) it was 5.881%; in series [3] (Original), 0.3657%. In series [3] (99% RH at 25° C. for 3 hours, compared to the low melting point crystal), the “Rate of water absorption (in words)” value was “relatively low rate of water absorption”.

`CCCCC[C@](C)(O)/C=C/[C@@H]1[C@@H](C/C=C\CCCC(=O)O)[C@@H](O)C[C@H]1O` [Example 10 (Method B), 2-amino-2-(hydroxymethyl)propane-1,3-diol; (Z)-7-((1R,2R,3R,5S)-3,5-dihydroxy-2-((S,E)-3-hydroxy-3-methyloct-1-en-1-yl)cyclopentyl)hept-5-enoate, reference compound]: the “Water Content (%)” value was 2.236% in series [3] (25° C./99% RH/1 h), 5.45% in series [3] (25° C./99% RH/2 h), 7.513% in series [3] (25° C./99% RH/3 h) and 0.3303% in series [3] (Original).
